Paper PMC9465641 (Frontiers in Pharmacology, 2022)
Counter-ions that a name gives are not always drawn. Positions of bridges follow the written chain, without caps; N, C: chain ends. Non-standard residues stand in square brackets, D forms with d. Residues, ends and D or L forms follow the SMILES beside them. *: point of attachment. X1 = CC[C@H](C)CCCCC(=O)*; Dab = NCC[C@H](N)C(=O)O

How the values were obtained:
[1] = tested on: carbapenem-resistant gram-negative bacteria; experiment: Clinical outcome, microbiological outcome and nephrotoxicity in patients; assay type: in vivo, human
Experimental: The primary endpoint was the clinical outcome, and the secondary endpoint was the microbiological outcome. Clinical outcomes were defined as valid, if signs and symptoms of infection disappeared or improved on Day 7 after the initiation of colistin therapy; or invalid, defined as any of the following criteria: death related to infection, hemodynamic instability, deteriorated Sequential Organ Failure Assessment (SOFA) score, constant fever >38.5°C, repeat isolation of bacterial phenotypically identical to the index isolate. […] Colistin-induced nephrotoxicity was defined using RIFLE (risk, injury, failure, loss of kidney function, and end-stage renal disease) criteria during treatment ([Bellomo et al., 2004]). […]

[2] = tested on: PA+AB (P. aeruginosa + A. baumannii); experiment: MIC for colistin of causative pathogen; assay type: cell-based
[3] = tested on: K. pneumoniae; experiment: MIC for colistin of causative pathogen; assay type: cell-based; settings: isolate of patient 2; KP
[4] = Urinary excretion and renal clearance of colistin sulfate; assay type: in vivo, human
Experimental: Colistin sulfate treatment was at the discretion of their medical teams. […] Colistin sulfate was routinely subjected to therapeutic drug monitoring (TDM) in our hospital. […] Other blood samples were collected randomly from residual blood of blood gas analysis or routine blood tests. In addition, urine samples from 6 patients with catheters in the intensive care unit were collected and recorded across a dosage interval (0–12 h after dosing) after 72 h of therapy. All samples were centrifuged for 10 min (4,000 ×g), and the supernatant was immediately collected and stored at −80°C pending analysis.
Colistin A and colistin B in plasma and urinary samples were quantified using a validated ultraperformance liquid chromatography tandem mass spectrometry (LC-MS/MS) assay. Briefly, samples were pretreated with acetonitrile, and 1 μL supernatant was injected into the LC-MS/MS instrument for analysis. A Waters XBridge BEH HILIC (4.6 × 150 mm, 2.5 μm) column was used. The mobile phase, consisting of eluents A (0.1% formic acid in water, vol/vol) and B (methanol), was delivered at a flow of 0.5 ml/min. Analysis of independently prepared quality control samples indicated good reproducibility (coefficients of variation ≤12.57%), and accuracy ranged from 88.52% to 109.43%. The limit of quantification was 0.034 mg/L for colistin A and 0.059 mg/L for colistin B. Since colistin A and B had similar structures, molecular weights and pharmacokinetic characteristics, the concentrations of colistin A and B were added together and referred to as colistin ([Li et al., 2003]; [Couet et al., 2011]).
The renal clearance (CLR) of colistin was calculated as the ratio of the amount recovered in urine to the area under the plasma concentration-time curve (AUC) during the same period ([Sandri et al., 2013]). The percentage of colistin sulfate excreted in urine was defined as the amount of colistin recovered in urine divided by the dose administered. The fraction of renal clearance was estimated by CLR divided by total body clearance (CL) ([Li et al., 2003]).

[5] = used for fAUC/MIC; ref Nation et al., 2016; cited from earlier work
Experimental: The AUC for each dosing regimen was calculated at 24 or 72 h after therapy to evaluate the probability of target attainment (PTA) of fAUC/MIC ≥20 ([Dudhani et al., 2010a]; [Cheah et al., 2015]), where f is the unbound fraction of colistin defined as 0.49 ([Nation et al., 2016]). Dosing regimens were considered appropriate if PTA ≥90% was achieved. In addition, the average steady-state plasma colistin concentration (Css,avg) was used to evaluate the probabilities of efficacy and toxicity, and the desired Css, avg were designed to achieve target attainment rates of >80% for Css,avg ≥ 2 and <30% ...

[6] = set-up: method as in Couet et al., 2011; settings: colistin converted from CMS; ref Couet et al., 2011; cited from earlier work
[7] = set-up: method as in Al-Khayyat and Aronson, 1973; settings: dogs; ref Al-Khayyat and Aronson, 1973; cited from earlier work
[8] = patient 1, Pulmonary, PA+AB, MIC 0.5 mg/L, 1.0 MU q12h, with MER+LIN
[9] = patient 2, Pulmonary, Bloodstream, Urinary tract, KP, MIC 0.5 mg/L, 1.0 MU q12h, with MER
[10] = patient 3, Pulmonary, AB, MIC 0.5 mg/L, 0.75 MU q12h + inhaled 0.25MU q12h, with MER
[11] = patient 6, Pulmonary, Bloodstream, KP, MIC 0.5 mg/L, 1.0 MU q12h + inhaled 0.25MU q12h, with PIP/TAZ
[12] = patient 7, Pulmonary, KP, MIC 0.5 mg/L, 0.75 MU q12h + inhaled 0.25MU q12h, with MER, PIP/TAZ
[13] = patient 8, Pulmonary, AB, MIC 2 mg/L, 0.75 MU q12h + inhaled 0.25MU q12h, with MER
[14] = patient 9, Pulmonary, AB, MIC 0.5 mg/L, 0.75 MU q12h + inhaled 0.25MU q12h, with MER
[15] = patient 10, Pulmonary, AB, MIC 0.5 mg/L, 0.75 MU q12h + inhaled 0.25MU q12h, with MER+LIN
[16] = patient 11, Bloodstream, AB, MIC 0.5 mg/L, 1.0 MU q12h, with MER+TEI
[17] = patient 12, Bloodstream, Urinary tract, KP, MIC 0.5 mg/L, 0.5 MU q8h, with CEF/AVI
[18] = patient 13, Pulmonary, Bloodstream, KP, MIC 0.5 mg/L, 0.5 MU q8h, with CEF/AVI
[19] = patient 14, Pulmonary, Bloodstream, Abdomen, KP, MIC 0.5 mg/L, 0.5 MU q8h, with CEF/AVI
[20] = patient 15, Abdomen, PA+AB, MIC 1, 2 mg/L, 0.75 MU q8h + inhaled 0.25MU q12h, with MER+CEF/SUL
[21] = patient 16, Pulmonary, AB, MIC 0.5 mg/L, 0.5 MU q8h + inhaled 0.25MU q12h, with MER+CEF/SUL
[22] = patient 18, Pulmonary, AB, MIC 0.5 mg/L, 0.75 MU q12h + inhaled 0.25MU q12h, with MER
[23] = patient 19, Pulmonary, AB, MIC 0.5 mg/L, 0.5 MU q8h, with MER+TEI

Which results are given for CC[C@H](C)CCCCC(=O)N[C@@H](CCN)C(=O)N[C@H](C(=O)N[C@@H](CCN)C(=O)N[C@H]1CCNC(=O)[C@H]([C@@H](C)O)NC(=O)[C@H](CCN)NC(=O)[C@H](CCN)NC(=O)[C@H](CC(C)C)NC(=O)[C@@H](CC(C)C)NC(=O)[C@H](CCN)NC1=O)[C@@H](C)O [colistin sulfate] (X1-[Dab]T[Dab][Dab][Dab][dL]L[Dab][Dab]T; lactam 4-C)?
successful clinical outcomes ([1]; 12 of 16 cases, definitive therapy, Day 7): 75%; microbiological eradication ([1]; 13 of 16 subjects, causative pathogen MIC 0.5–2 mg/L): 81.25%; colistin-induced nephrotoxicity (RIFLE criteria) ([1]; during the treatment): None of the patients experienced colistin-induced nephrotoxicity; Clinical outcomes [1, 8]: Valid; Microbiological outcomes [1, 8]: clearance; Clinical outcomes [1, 9]: Invalid; Microbiological outcomes [1, 9]: clearance; Clinical outcomes [1, 10]: Valid; Microbiological outcomes [1, 10]: clearance; Clinical outcomes [1, 11]: Valid; Microbiological outcomes [1, 11]: clearance; Clinical outcomes [1, 12]: Valid; Microbiological outcomes [1, 12]: clearance; Clinical outcomes [1, 13]: Invalid; Microbiological outcomes [1, 13]: uncleared; Clinical outcomes [1, 14]: Valid; Microbiological outcomes [1, 14]: clearance; Clinical outcomes [1, 15]: Valid; Microbiological outcomes [1, 15]: clearance; Clinical outcomes [1, 16]: Valid; Microbiological outcomes [1, 16]: clearance; Clinical outcomes [1, 17]: Valid; Microbiological outcomes [1, 17]: clearance; Clinical outcomes [1, 18]: Valid; Microbiological outcomes [1, 18]: clearance; Clinical outcomes [1, 19]: Valid; Microbiological outcomes [1, 19]: clearance; Clinical outcomes [1, 20]: Invalid; Microbiological outcomes [1, 20]: uncleared; Clinical outcomes [1, 21]: Valid; Microbiological outcomes [1, 21]: clearance; Clinical outcomes [1, 22]: Valid; Microbiological outcomes [1, 22]: clearance; Clinical outcomes [1, 23]: Invalid; Microbiological outcomes [1, 23]: uncleared; MIC ([2]; isolates of patient 15, first printed value): 1 µg/mL; MIC ([2]; isolates of patient 15, second printed value): 2 µg/mL; MIC [3]: 0.5 µg/mL; dose excreted ([4]; human, iv, six patients, 41 urine samples, 0-12 h dosage interval after 72 h of therapy, median, read-out: percentage of colistin dose excreted in urine, median): 10.1%; CLR ([4]; patient 1, 1.0 MU q12h): 0.133 L/h; CLR/CL ([4]; patient 1, 1.0 MU q12h): 9.15%; CLR ([4]; patient 2, 1.0 MU q12h): 0.405 L/h; CLR/CL ([4]; patient 2, 1.0 MU q12h): 15.58%; CLR ([4]; patient 3, 0.75 MU q12h): 0.108 L/h; CLR/CL ([4]; patient 3, 0.75 MU q12h): 2.52%; CLR ([4]; patient 5, 0.75 MU q12h): 0.284 L/h; CLR/CL ([4]; patient 5, 0.75 MU q12h): 17.95%; CLR ([4]; patient 7, 0.75 MU q12h): 0.053 L/h; CLR/CL ([4]; patient 7, 0.75 MU q12h): 4.64%; CLR ([4]; patient 8, 0.75 MU q12h): 0.767 L/h; 12-hour urinary excretion of colistin, median ([4]; six patients, median): 4.149 mg; CLR as percentage of CL (CLR/CL), median ([4]; six patients, median): 12.37%; renal clearance (CLR), median ([4]; six patients, median): 0.209 L/h; unbound fraction (f) [5]: 0.49; CL [6]: 2.92 L/h; dose recovered from urine [7]: 0.13 ± 0.09%
